Target: T1, protein-protein interaction between SOS1 and KRAS-G12D (Homo sapiens, UniProt Q07889)
T1 construct: The purified GST-SOS1 catalytic domain (residues 564-1049) was first diluted in assay buffer; made in house; host or cells: E. coli BL21 (DE3) for SOS1; E. coli BL21 carrying a BirA plasmid for KRAS-G12D
T1 sequence (Q07889 564-1049): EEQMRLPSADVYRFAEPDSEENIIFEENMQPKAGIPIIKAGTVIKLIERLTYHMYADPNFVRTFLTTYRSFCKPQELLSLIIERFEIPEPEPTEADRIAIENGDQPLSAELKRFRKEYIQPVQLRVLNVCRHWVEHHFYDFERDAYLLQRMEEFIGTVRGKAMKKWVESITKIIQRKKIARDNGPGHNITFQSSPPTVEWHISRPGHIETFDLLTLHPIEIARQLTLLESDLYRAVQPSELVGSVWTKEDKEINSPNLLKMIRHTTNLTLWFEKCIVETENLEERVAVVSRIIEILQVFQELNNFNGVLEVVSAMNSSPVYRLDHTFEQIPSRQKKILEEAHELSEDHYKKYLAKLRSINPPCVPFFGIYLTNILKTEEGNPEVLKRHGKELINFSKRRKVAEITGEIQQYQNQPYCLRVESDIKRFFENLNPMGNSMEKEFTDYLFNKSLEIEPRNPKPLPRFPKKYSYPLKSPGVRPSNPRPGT
Assay: HTRF Based Protein-Protein Interaction Assay
Type: binding
Conditions: HTRF; GST-SOS1 2.5 nM, KRAS-G12D 100 nM, GDP 10 uM; read-out: IC50 value, inhibition of SOS1/KRAS-G12D protein-protein interaction
Description: A KRAS-G12D and SOS1 binding/interaction assay was designed to measure the interaction between KRAS-G12D and SOS1 proteins. Utilizing HTRF (Homogeneous Time-Resolved Fluorescence) technology, the assay enabled simple and rapid characterization of compound and protein interaction in a high throughput format. This assay was used to examine potency of the compounds in inhibiting the protein-protein interaction between SOS1 and KRAS-G12D. […] Low IC50 values are indicative of high potency of the SOS1 inhibitor compound to disrupt SOS1 and Kras-G12D interaction.
Protein Expression and Purification. The corresponding gene sequence to human SOS1 (residues 564-1049, UniProt ID: Q07889; SEQ ID NO: 2) was synthesized and fused in frame with GST expression vector. After the desired sequence was confirmed, plasmid containing the sequence was transformed into the E. coli strain BL21 (DE3). Bacteria were growing at 37° C. in LB media containing 50 μg/ml Kanamycin to give OD600 of 0.6-0.8. Then 0.2 mM IPTG was added to induce protein expression for 16 hours at 17° C. Bacteria were harvested by centrifugation and stored at −80° C. Bacteria pellets were resuspended in lysis buffer (25 mM Tris-HCl, 500 mM NaCl, 2 mM DTT, 2.3% sucrose, 0.3% dextran-10, 1 mM PMSF, pH 7.5) and lysed using high-pressure homogenizer. The lysate was cleared by centrifugation for 30 minutes (12000 rpm at 4° C.). The supernatant containing GST-SOS1 fragment was purified sequentially through Glutathione column and gel filtration (Hiload 16/600 Superdex […] column, Cytiva). The purified GST-SOS1 fragment was confirmed by SDS-PAGE and stored in 25 mM Tris-HCl, 100 mM NaCl, 1 mM DTT, 2.3% sucrose, 0.3% dextran-10, pH 7.5 at −80° C.
Kras-G12D Protein Purification. The sequence corresponding to human KRAS-G12D (residues 1-169, UniProt P01116-2; SEQ ID NO: 1) was synthesized and fused in frame with His-AVI-TEV vector. The plasmid was transformed into the E. coli strain BL21 (containing a plasmid that can generate BirA enzyme). Bacteria were growing at 37° C. in TB media containing 100 μg/ml ampicillin and 50 μg/ml Kanamycin to give OD600 of 0.6-0.8. The 0.5 mM IPTG and 50 mg/l biotin were added to induce protein expression for 16 hours at 25° C. Bacteria were harvested by centrifugation and stored at −80° C. Bacteria pellets were re-suspended in lysis buffer (20 mM Tris-HCl, 500 mM NaCl, 5 mM MgCl2, 2 mM […], 5% glycerol, pH 8.0) and lysed using high-pressure homogenizer. The lysate was cleared by centrifugation for 30 minutes (12000 rpm at 4° C.). The supernatant containing HIS-AVI-TEV-KRAS-G12D fragment was purified sequentially through Ni-NTA column (SMART), Streptactin column (SMART), and gel filtration (Hiload 16/600 Superdex 75 pg, GE). The purified HIS-AVI-TEV-KRAS-G12D fragment was confirmed by SDS-PAGE and stored in 50 mM HEPES-NaOH, 100 mM NaCl, 1 mM DTT, 5 mM MgCl2, pH 7.5 at −80° C.
Protein-Protein Interaction Assay. An assay buffer containing 50 mM HEPES, pH 7.5, 50 mM NaCl, 0.01% Brij-35, 1 mM TCEP, 0.1% BSA was prepared, and concentration series of test compounds were generated spanning from 0.5 nM to 10 μM over 10 3-fold serial dilutions in a 384-well assay plate at a volume of 20 pL. The purified GST-SOS1 catalytic domain (residues 564-1049) was first diluted in assay buffer and 5 μl of SOS1 (final concentration 2.5 nM in assay mixture) was directly dispensed into compound plates. After a spin down at 1000 RPM for 30 seconds, the SOS1/compound mixture was incubated at 25° C. for 15 minutes to allow the reaction between SOS1 and the compound. A KRAS-G12D mixture was prepared by incubation of avi-tagged Kras-G12D (residue 1-169) and GDP in assay buffer containing 10 mM MgCl2 at room temperature for 10 minutes. A KRAS-G12D and GDP mixture (5 μL) was added to the assay plate (final KRAS-G12D was 100 nM and GDP was 10 uM). The plate was centrifuged at 1000 rpm for 30 sec and incubated at 25° C. for 60 minutes. […]

Row | IC50 | Structure (SMILES)
1 | < 0.1 µM | C#C[C@@H](Nc1nc(C)nc2cc(=O)n(C3(C)CC3)cc12)c1cccc2c1OCC2(F)F [Compound 21, (R)-4-((1-(3,3-difluoro-2,3-dihydrobenzofuran-7-yl)prop-2-yn-1-yl)amino)-2-methyl-6-(1-methylcyclopropyl)pyrido[4,3-d]pyrimidin-7(6H)-one]
2 | < 0.1 µM | C#C[C@@H](Nc1nc(C)nc2cc(=O)n(C3CC4(CNC4)C3)cc12)c1cccc(C(F)F)c1C [Compound 37, (R)-4-((1-(3-(difluoromethyl)-2-methylphenyl)prop-2-yn-1-yl)amino)-2-methyl-6-(2-azaspiro[3.3]heptan-6-yl)pyrido[4,3-d]pyrimidin-7(6H)-one]
3 | < 0.1 µM | C#C[C@@H](Nc1nc(C)nc2cc(=O)n(C3(C)CC3)cc12)c1cccc(C(F)(F)F)c1C [Compound 18, (R)-2-methyl-4-((1-(2-methyl-3-(trifluoromethyl)phenyl)prop-2-yn-1-yl)amino)-6-(1-methylcyclopropyl)pyrido[4,3-d]pyrimidin-7(6H)-one]
4 | < 0.1 µM | C#C[C@@H](Nc1nc(C)nc2cc(=O)n(C3(C(F)F)CC3)cc12)c1cccc(C(C)(F)F)c1F [Compound 25, (R)-4-((1-(3-(1,1-difluoroethyl)-2-fluorophenyl)prop-2-yn-1-yl)amino)-6-(1-(difluoromethyl)cyclopropyl)-2-methylpyrido[4,3-d]pyrimidin-7(6H)-one]
5 | 0.1 to 0.2 µM | C#C[C@@H](Nc1nc(C)nc2cc(=O)n(N[C@H]3CCOC3)cc12)c1cccc(C(F)F)c1C [Compound 16, 4-(((R)-1-(3-(difluoromethyl)-2-methylphenyl)prop-2-yn-1-yl)amino)-2-methyl-6-(((S)-tetrahydrofuran-3-yl)amino)pyrido[4,3-d]pyrimidin-7(6H)-one]
6 | < 0.1 µM | C#C[C@@H](Nc1nc(C)nc2cc(=O)n(C3(C#C)CC3)cc12)c1cccc(C(F)F)c1F [Compound 26, (R)-4-((1-(3-(difluoromethyl)-2-fluorophenyl)prop-2-yn-1-yl)amino)-6-(1-ethynlcyclopropyl)-2-methylpyrido [4,3-d]pyrimidin-7(6H)-one]
7 | < 0.1 µM | C#C[C@@H](Nc1nc(C)nc2c(C)c(=O)n(C3(C)CC3)cc12)c1cccc(C(F)(F)F)c1C [Compound 28, (R)-2,8-dimethyl-4-((1-(2-methyl-3-(trifluoromethyl)phenyl)prop-2-yn-1-yl)amino)-6-(1-methylcyclopropyl)pyrido[4,3-d]pyrimidin-7(6H)-one]
8 | < 0.1 µM | C#C[C@@H](Nc1ncnc2cc(=O)n(C3(C(F)F)CC3)cc12)c1cccc(C(F)F)c1C [Compound 40, (R)-4-((1-(3-(difluoromethyl)-2-methylphenyl)prop-2-yn-1-yl)amino)-6-(1-(difluoromethyl)cyclopropyl)pyrido[4,3-d]pyrimidin-7(6H)-one]
9 | < 0.1 µM | C#C[C@@H](Nc1nc(C)nc2cc(=O)n(C3(C(F)F)CC3)cc12)c1cccc(C#N)c1F [Compound 42, (R)-3-(1-((6-(1-(difluoromethyl)cyclopropyl)-2-methyl-7-oxo-6,7-dihydropyrido[4,3-d]pyrimidin-4-yl)amino)prop-2-yn-1-yl)-2-fluorobenzonitrile]
10 | < 0.1 µM | C#C[C@@H](Nc1nc(C)nc2c(F)c(=O)n(C3(C(F)F)CC3)cc12)c1cccc(C(F)(F)F)c1C [Compound 14, (R)-6-(1-(difluoromethyl)cyclopropyl)-8-fluoro-2-methyl-4-((1-(2-methyl-3-(trifluoromethyl)phenyl)prop-2-yn-1-yl)amino)pyrido[4,3-d]pyrimidin-7(6H)-one]
11 | < 0.1 µM | C#C[C@@H](Nc1nc(C)nc2cc(=O)n(C3(C)CC3)cc12)c1cccc(C(F)F)c1F [Compound 20, (R)-4-((1-(3-(difluoromethyl)-2-fluorophenyl)prop-2-yn-1-yl)amino)-2-methyl-6-(1-methylcyclopropyl)pyrido[4,3-d]pyrimidin-7(6H)-one]
12 | < 0.1 µM | C#C[C@@H](Nc1nc(C)nc2cc(=O)n(C3(C)CC3)cc12)c1cccc2c1CCC2(F)F [Compound 23, (R)-4-((1-(1,1-difluoro-2,3-dihydro-1H-inden-4-yl)prop-2-yn-1-yl)amino)-2-methyl-6-(1-methylcyclopropyl)pyrido[4,3-d]pyrimidin-7(6H)-one]
13 | < 0.1 µM | C#C[C@@H](Nc1ncnc2c1cc(C1(F)CCN(C(C)=O)CC1)c(=O)n2C)c1cccc(C(F)F)c1F [Compound 47, 6-(1-acetyl-4-fluoropiperidin-4-yl)-4-{[(1R)-1-[3-(difluoromethyl)-2-fluorophenyl]prop-2-yn-1-yl]amino}-8-methyl-7H,8H-pyrido[2,3-d]pyrimidin-7-one]
14 | < 0.1 µM | C#C[C@@H](Nc1nc(C)nc2cc(=O)n(C3CC4(C3)CN(C)C4)cc12)c1cccc(C(F)F)c1C [Compound 38, (R)-4-((1-(3-(difluoromethyl)-2-methylphenyl)prop-2-yn-1-yl)amino)-2-methyl-6-(2-methyl-2-azaspiro[3.3]heptan-6-yl)pyrido[4,3-d]pyrimidin-7(6H)-one]
15 | < 0.1 µM | C#C[C@@H](Nc1nc(C)nc2cc(=O)n(C3(C)CCOC3)cc12)c1cccc(C(F)F)c1C (mixture of isomers) [Compound 13, 4-(((R)-1-(3-(difluoromethyl)-2-methylphenyl)prop-2-yn-1-yl)amino)-2-methyl-6-(3-methyltetrahydrofuran-3-yl)pyrido[4,3-d]pyrimidin-7(6H)-one]
16 | 0.1 to 0.2 µM | C#C[C@@H](Nc1nc(C)nc2cc(=O)n(C3(C(F)F)CC3)cc12)c1cccc(Br)c1F [Compound 41, (R)-4-((1-(3-bromo-2-fluorophenyl)prop-2-yn-1-yl)amino)-6-(1-(difluoromethyl)cyclopropyl)-2-methylpyrido[4,3-d]pyrimidin-7(6H)-one]
17 | < 0.1 µM | C#C[C@@H](Nc1nc(C)nc2cc(=O)n(C3(C4CCOC4)CC3)cc12)c1cccc(C(F)(F)F)c1C (stereo partly drawn) [Compound 34, 2-methyl-4-(((R)-1-(2-methyl-3-(trifluoromethyl)phenyl)prop-2-yn-1-yl)amino)-6-(1-(tetrahydrofuran-3-yl)cyclopropyl)pyrido[4,3-d]pyrimidin-7(6H)-one]
